Source: ChEMBL document CHEMBL1641363, “Fragment-based discovery of 6-substituted isoquinolin-1-amine based ROCK-I inhibitors” (Bioorg Med Chem Lett, 2011)

Assays:
[1] = molecular target: T1, Rho-associated protein kinase 1 (Homo sapiens, UniProt Q13464); experiment: Displacement of Y-27632 from ROCK-1 assessed as drop in intensity of binding signals by NMR competition experiment; design: concentration or dose not given beside the values
Target sequence in this assay (Q13464 2-1354 limits assumed): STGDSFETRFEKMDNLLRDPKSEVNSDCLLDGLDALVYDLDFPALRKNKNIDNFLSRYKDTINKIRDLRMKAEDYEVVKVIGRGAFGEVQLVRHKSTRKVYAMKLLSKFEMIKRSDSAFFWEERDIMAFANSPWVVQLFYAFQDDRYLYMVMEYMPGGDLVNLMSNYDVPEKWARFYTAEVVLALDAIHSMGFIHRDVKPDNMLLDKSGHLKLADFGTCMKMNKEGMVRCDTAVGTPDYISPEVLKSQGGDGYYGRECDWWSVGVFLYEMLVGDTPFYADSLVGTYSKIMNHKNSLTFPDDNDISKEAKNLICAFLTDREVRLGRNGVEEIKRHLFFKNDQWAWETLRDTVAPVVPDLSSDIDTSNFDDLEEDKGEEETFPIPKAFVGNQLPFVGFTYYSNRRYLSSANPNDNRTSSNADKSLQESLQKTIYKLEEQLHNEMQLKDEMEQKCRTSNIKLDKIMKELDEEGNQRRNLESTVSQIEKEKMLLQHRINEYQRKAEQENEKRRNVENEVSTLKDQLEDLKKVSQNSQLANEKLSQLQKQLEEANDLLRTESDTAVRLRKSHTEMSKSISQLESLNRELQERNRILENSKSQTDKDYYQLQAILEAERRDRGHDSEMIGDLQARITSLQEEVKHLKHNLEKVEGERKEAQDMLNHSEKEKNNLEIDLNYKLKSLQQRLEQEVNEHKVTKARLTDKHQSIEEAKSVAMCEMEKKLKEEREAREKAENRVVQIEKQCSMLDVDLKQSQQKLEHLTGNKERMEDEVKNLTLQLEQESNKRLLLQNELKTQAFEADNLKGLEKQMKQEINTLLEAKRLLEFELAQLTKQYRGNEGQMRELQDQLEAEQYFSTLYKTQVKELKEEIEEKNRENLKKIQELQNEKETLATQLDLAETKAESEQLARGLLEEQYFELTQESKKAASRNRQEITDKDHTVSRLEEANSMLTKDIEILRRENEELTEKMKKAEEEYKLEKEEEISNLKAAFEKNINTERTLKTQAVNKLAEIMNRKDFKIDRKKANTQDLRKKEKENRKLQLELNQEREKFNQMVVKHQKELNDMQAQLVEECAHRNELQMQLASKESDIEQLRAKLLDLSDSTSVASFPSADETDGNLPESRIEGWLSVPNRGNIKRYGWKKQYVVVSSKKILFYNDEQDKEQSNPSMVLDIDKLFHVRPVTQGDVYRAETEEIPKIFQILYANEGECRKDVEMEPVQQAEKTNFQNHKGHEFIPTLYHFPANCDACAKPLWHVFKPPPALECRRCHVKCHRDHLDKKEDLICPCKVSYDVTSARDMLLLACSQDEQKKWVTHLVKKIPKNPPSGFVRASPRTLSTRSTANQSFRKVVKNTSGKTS

[2] = molecular target: T1, Rho-associated protein kinase 1; experiment: Inhibition of ROCK-1 by Immobilized metal ion affinity-based fluorescence polarization assay
Target sequence in this assay (Q13464 whole entry): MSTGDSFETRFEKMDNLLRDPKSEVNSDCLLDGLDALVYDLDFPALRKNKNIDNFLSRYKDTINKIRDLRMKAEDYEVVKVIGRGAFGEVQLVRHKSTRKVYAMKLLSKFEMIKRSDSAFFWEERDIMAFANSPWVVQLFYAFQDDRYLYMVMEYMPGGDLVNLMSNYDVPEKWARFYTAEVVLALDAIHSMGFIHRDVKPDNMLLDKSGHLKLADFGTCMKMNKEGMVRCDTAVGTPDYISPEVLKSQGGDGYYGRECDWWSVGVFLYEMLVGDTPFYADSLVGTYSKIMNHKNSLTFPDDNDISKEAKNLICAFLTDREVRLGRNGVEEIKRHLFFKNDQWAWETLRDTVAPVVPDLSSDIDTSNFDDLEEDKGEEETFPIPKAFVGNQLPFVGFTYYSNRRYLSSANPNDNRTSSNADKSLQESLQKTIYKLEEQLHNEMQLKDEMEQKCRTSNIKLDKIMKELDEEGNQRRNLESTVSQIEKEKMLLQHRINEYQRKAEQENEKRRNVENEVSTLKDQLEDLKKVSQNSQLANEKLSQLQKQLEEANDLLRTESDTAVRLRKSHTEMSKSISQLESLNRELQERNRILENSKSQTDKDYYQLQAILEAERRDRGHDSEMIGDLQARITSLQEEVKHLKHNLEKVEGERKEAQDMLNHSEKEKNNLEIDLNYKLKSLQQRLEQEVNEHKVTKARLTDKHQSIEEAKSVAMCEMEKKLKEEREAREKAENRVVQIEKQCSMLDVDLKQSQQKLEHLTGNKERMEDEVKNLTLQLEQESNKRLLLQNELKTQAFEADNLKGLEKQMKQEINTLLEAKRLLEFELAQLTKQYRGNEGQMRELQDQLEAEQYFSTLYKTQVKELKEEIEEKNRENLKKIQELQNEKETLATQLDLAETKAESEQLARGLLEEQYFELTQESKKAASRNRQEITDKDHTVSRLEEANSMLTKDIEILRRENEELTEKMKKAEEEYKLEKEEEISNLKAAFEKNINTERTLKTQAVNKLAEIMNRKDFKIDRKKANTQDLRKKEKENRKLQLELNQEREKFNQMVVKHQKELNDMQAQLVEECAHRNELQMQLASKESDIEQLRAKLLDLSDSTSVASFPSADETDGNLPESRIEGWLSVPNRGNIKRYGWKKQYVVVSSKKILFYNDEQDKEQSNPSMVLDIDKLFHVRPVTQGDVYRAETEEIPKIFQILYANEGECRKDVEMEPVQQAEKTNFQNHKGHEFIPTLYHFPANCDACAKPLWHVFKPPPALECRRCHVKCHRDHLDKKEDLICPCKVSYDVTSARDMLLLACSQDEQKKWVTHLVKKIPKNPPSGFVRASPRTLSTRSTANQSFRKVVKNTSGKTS

[3] = Oral bioavailability in C57 mouse; type: ADME, organism-based; conditions: in vivo
[4] = Volume of distribution at steady state in C57 mouse; type: ADME, organism-based; conditions: in vivo, read-out: Vdss
[5] = molecular target: T1, Rho-associated protein kinase 1; experiment: Inhibition of ROCK-1
Target sequence in this assay (Q13464 whole entry): as above

[6] = molecular target: Rho-associated protein kinase 2 (Homo sapiens, UniProt O75116); experiment: Inhibition of ROCK-2 by Immobilized metal ion affinity-based fluorescence polarization assay
[7] = molecular target: Voltage-gated inwardly rectifying potassium channel KCNH2 (Homo sapiens, UniProt Q12809); experiment: Displacement of [3H]dofetilide from human ERG
[8] = Plasma clearance in C57 mouse; type: ADME, organism-based
[9] = Half life in C57 mouse; type: ADME, organism-based; conditions: in vivo
[10] = Dissociation constant, pKa of the compound; type: physicochemical
[11] = Half life in human liver microsome; type: ADME; conditions: liver microsomes
[12] = Half life in rat liver microsome; type: ADME; conditions: liver microsomes
[13] = Half life in mouse liver microsome; type: ADME; conditions: liver microsomes
[14] = Half life in rat hepatocyte; type: ADME, cell-based, Liver; conditions: hepatocytes
[15] = Permeability from apical to basolateral side of human Caco2 cells; type: ADME, cell-based; conditions: Caco-2, read-out: permeability
[16] = Permeability from basolateral to apical side of human Caco2 cells; type: ADME, cell-based; conditions: Caco-2, read-out: permeability
[17] = Oral bioavailability in Wistar rat; type: ADME, organism-based; conditions: in vivo
[18] = Plasma clearance in Wistar rat; type: ADME, organism-based
[19] = Volume of distribution at steady state in Wistar rat; type: ADME, organism-based; conditions: in vivo, read-out: Vdss
[20] = Half life in Wistar rat; type: ADME, organism-based; conditions: in vivo

Voltage-gated inwardly rectifying potassium channel KCNH2, sequence (Q12809 whole entry): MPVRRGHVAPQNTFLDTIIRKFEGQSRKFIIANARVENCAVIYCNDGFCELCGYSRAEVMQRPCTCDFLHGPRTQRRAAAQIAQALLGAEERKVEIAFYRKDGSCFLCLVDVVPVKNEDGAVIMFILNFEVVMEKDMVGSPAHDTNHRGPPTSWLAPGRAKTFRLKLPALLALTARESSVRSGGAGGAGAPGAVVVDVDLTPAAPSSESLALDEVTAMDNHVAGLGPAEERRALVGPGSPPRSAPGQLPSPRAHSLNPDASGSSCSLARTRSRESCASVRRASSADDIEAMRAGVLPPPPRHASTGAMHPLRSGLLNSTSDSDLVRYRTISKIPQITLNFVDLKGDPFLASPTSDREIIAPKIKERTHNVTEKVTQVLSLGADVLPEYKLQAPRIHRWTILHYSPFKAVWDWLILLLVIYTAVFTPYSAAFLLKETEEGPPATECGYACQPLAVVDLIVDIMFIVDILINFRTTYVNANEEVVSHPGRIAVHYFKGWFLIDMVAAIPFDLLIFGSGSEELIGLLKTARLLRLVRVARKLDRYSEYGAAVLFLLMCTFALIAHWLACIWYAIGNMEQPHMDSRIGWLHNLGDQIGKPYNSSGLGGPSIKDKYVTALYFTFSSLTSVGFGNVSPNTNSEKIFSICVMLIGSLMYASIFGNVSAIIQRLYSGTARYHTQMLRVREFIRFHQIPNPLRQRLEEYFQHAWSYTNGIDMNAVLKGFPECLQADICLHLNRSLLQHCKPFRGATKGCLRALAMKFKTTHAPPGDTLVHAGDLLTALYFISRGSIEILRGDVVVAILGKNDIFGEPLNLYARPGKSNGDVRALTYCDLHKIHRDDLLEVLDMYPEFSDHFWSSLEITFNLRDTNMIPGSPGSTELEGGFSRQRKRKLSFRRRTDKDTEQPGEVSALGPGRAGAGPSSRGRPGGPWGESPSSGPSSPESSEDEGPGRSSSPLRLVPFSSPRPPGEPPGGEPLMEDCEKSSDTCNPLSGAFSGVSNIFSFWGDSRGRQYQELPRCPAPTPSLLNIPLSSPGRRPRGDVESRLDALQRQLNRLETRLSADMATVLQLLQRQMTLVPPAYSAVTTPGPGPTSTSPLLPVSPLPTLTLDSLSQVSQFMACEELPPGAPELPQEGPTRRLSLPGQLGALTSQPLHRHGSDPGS

| SMILES | Activity [1] [%] | IC50 [2] [nM] | also measured |
| --- | --- | --- | --- |
| c1ccc2[nH]cnc2c1 | 64 |  |  |
| Cc1ccc(CCNCc2ccc3c(N)nccc3c2)cc1 |  | 813 |  |
| O=S(=O)(c1cccc2cnccc12)N1CCCNCC1 [FASUDIL] |  |  | bioavailability [3]: 3.6%; Vd [4]: 1.8 L/kg |
| Nc1nccc2cc(CNCCOc3ccccc3)ccc12 |  | 589 |  |
| Nc1nccc2cc(CNCCc3ccccc3)ccc12 |  | 1290 | Ki [5]: 63.1 nM; IC50 [6]: 1290 nM; Ki [7]: 3160 nM |
| CS(=O)(=O)N1CCC[C@H](Oc2ccc3c(N)nccc3c2)C1 |  | > 100000 |  |
| Nc1nccc2cc(OC3CCN(Cc4ccccc4)CC3)ccc12 |  | 4270 |  |
| c1ccc(-n2cccc2)nc1 | 30 |  |  |
| CC1=NC(C(C)C)CO1 (configuration not stated) | 40 |  |  |
| c1cc(N2CCOCC2)ccn1 | > 80 |  |  |
| Nc1nccc2cc(CNCCNc3ccccc3)ccc12 |  | 1480 |  |
| CN(CCc1ccccc1)Cc1ccc2c(N)nccc2c1 |  | 427 |  |
| c1cc(-c2cnco2)ccn1 | > 80 |  |  |
| Nc1nccc2cc(CNCc3ccccc3)ccc12 |  | 6760 |  |
| Nc1nccc2cc(CNCCc3cccc(C(F)(F)F)c3)ccc12 |  | 1700 |  |
| Nc1nc2c(c(=O)[nH]1)CC=N2 | 68 |  |  |
| O=S(=O)(c1cccc2c(O)nccc12)N1CCCNCC1 [HYDROXYFASUDIL] |  |  | Ki [7]: 7940 nM; bioavailability [3]: 57%; clearance [8]: 34 mL/min/kg; Vd [4]: 2.4 L/kg; half-life [9]: 45 min |
| c1ccn2ccnc2c1 | 38 |  |  |

| SMILES | Activity [1] [%] | IC50 [2] [nM] | also measured |
| --- | --- | --- | --- |
| Cn1nc(C(C)(C)C)cc1N | 20 |  |  |
| C[C@@H](N)[C@H]1CC[C@H](C(=O)Nc2ccncc2)CC1 [Y-27632] |  |  | bioavailability [3]: 52%; clearance [8]: 50.9 mL/min/kg; Vd [4]: 3.8 L/kg; half-life [9]: 100 min |
| Nc1nccc2cc(CNCCc3ccc(Cl)c(Cl)c3)ccc12 |  | 776 |  |
| NCc1ccc2c(N)nccc2c1 |  | 7760 | pKa [10]: 7.6 |
| Nc1nccc2cc(CNCc3cccc(Oc4ccccc4)c3)ccc12 |  | 575 |  |
| c1ccc2[nH]ncc2c1 | > 80 |  |  |
| COc1ccc(CCNCc2ccc3c(N)nccc3c2)cc1 |  | 1000 |  |
| Nc1nccc2cc(OC3CCNCC3)ccc12 |  | 3630 |  |
| CC(=O)c1ccccc1 | 60 |  |  |
| CC1(C)C(=O)Nc2ccccc21 | 25 |  |  |
| c1ccc2cnccc2c1 | 70 |  |  |
| Nc1nccc2cc(CNCc3ccc4ccccc4c3)ccc12 |  | 3470 |  |
| Nc1nccc2cc(O[C@H]3CCCN(Cc4ccccc4)C3)ccc12 |  |  | half-life [11]: 12 min; half-life [12]: 22 min; half-life [13]: > 120 min; half-life [14]: 27 min; Papp A→B [15]: 2.2 ×10⁻⁶ cm/s; Papp B→A [16]: 1.5 ×10⁻⁶ cm/s; bioavailability [17]: 7%; clearance [18]: 295 mL/min/kg; Vd [19]: 8.2 L/kg; half-life [20]: 492 min |
| Nc1ccnc2ccncc12 | > 80 |  |  |
| NC(=O)c1ccccc1O | 34 |  |  |
| Nc1nccc2cc(CNCCc3ccncc3)ccc12 |  | 1860 |  |
| O=C(Nc1nccs1)c1ccncc1 | > 80 |  |  |
| Nc1ncnc2ccccc12 | > 80 |  |  |
